Results: patent publication US5407951A, “Sulphonamidocycloalkane compounds, pharmaceutical compositions containing them, and methods of use thereof” (Boehringer Mannheim GmbH, priority 1988, dated 1995)
pIC50: −log10 of the molar value.

What was measured:
Male NMRI mice = experiment: In vivo inhibition of induced pulmonary emboli (survival after lethal dose of U46619); settings: lethal dose U46619 (800-1000 ug/kg) into tail vein four hours later, survival after 24 hours, groups of 5; for Survival Rate of Mouse 1 mg/kg, 4 h in %: 1 mg/kg by gastric route in 1% methyl cellulose; for Survival Rate of Mouse 25 mg/kg, 4 h in %: 25 mg/kg by gastric route in 1% methyl cellulose
Protocol: (b) In vivo Inhibition of Induced Pulmonary Emboli
Male NMRI mice, having a body weight of approximately 25g, were separated into groups of 5. Representative examples of the compounds of this invention listed in part (a) were suspended 1% methyl cellulose and administered to the animals by gastric incubation in amounts providing 1/mg/kg and 25/mg/kg of the antagonist, Four hours after incubation, a previously determined lethal dose of U46619 (800-1000 ug/kg) was injected into the tail vein of each animals. The survival rates for each group of mice was determined after 24 hours. The results are shown in Table 1 and indicate correlation with the IC50 measured in vitro.

[1] = system: Platelet-rich human blood plasma; experiment: In vitro inhibition of platelet aggregation induced by thromboxane mimetic U46619 (Born and Cross, aggregometer); type: cell-based; settings: citrated platelet-rich human plasma, measured for five minutes
Protocol: (a) In vitro Inhibition of Platelet Aggregation.
Platelet-rich human blood plasma was treated with 3.2% citrate at a volume ratio of 1:9 to inhibit clotting. A selective thromboxane mimetic, U46619, which is a stable analog of the prostaglandin endoperoxide PGH2, as described by Coleman et al., Brit. J. Pharmocol. 68,127P (1980) was obtained from Upjohn & Co., Kalamazoo, Mich.
The test protocol was that described by Born and Cross, J. Physiol. 168,178 (1963) with the degree of aggregation measured using a 4-channel aggregometer (Profiler, Bio/Data Co.). The compounds of this invention, Examples 2.1, 4(cis) 4(trans), 6 ad 7 were diluted in saline, at final concentrations of 10^-4 to 10^-9M. Saline was used as a control. Measurements were made for a period of five minutes, After addition of the tromboxane mimetic. From the data obtained, an inhibitory concentration IC50 was calculated using standard methods.

SMILES	Survival Rate of Mouse 1 mg/kg, 4 h in % (Male NMRI mice) [%]	Survival Rate of Mouse 25 mg/kg, 4 h in % (Male NMRI mice) [%]	pIC50 [1]
O=C(O)C1CCC(CCNS(=O)(=O)c2ccc(Cl)cc2)CC1 (stereo not drawn) [Example 2.1]	100	100	5.70
O=S(=O)(NCCC1CCC(OCc2nn[nH]n2)CC1)c1ccc(Cl)cc1 (stereo not drawn) [Example 7, 1-[2-(4-Chlorobenzenesulphonylamino)-ethyl]-4-(tetrazol-5-yl-methyleneoxy)-cyclohexane]	100	100	6.38
O=C(CO[C@H]1CC[C@H](CCNS(=O)(=O)c2ccc(Cl)cc2)CC1)Nc1nnn[nH]1 [4 (trans), trans-4-[2-(4-chlorobenzenesulphonylamino)-ethyl]-cyclohexyloxy acetic acid (tetrazol-5-yl-amide)]	60	100	5.24
O=C(CC1CCC(CCNS(=O)(=O)c2ccc(Cl)cc2)CC1)Nc1nnn[nH]1 (stereo not drawn) [Example 6, 4-[2-(4-Chlorobenzenesulphonylamino)-ethyl]-cyclohexylacetic acid (tetrazol-5-yl-amide)]	100	100	5.60
O=C(CO[C@H]1CC[C@@H](CCNS(=O)(=O)c2ccc(Cl)cc2)CC1)Nc1nnn[nH]1 [4 (cis), cis-4-[2-(4-Chlorobenzenesulphonylamino)-ethyl]cyclohexyloxyacetic acid (tetrazol-5-yl)-amide]	100	100	5.34
